From PubChem BioAssay AID1259407 (Chemical Carcinogenesis Research Information System (CCRIS), 2018)
Activity calls are given as the source filed them. No rule for the calls is given here.

Test system: CCRIS mutagenicity, Ames/micronucleus/aberration tests
Test: CCRIS mutagenicity studies
[1] = Test System: AMES SALMONELLA TYPHIMURIUM, Strain/Indicator: TA98, Metabolic Activation: NONE, Method: STANDARD PLATE
[2] = Test System: AMES SALMONELLA TYPHIMURIUM, Strain/Indicator: TA98, Metabolic Activation: RAT, LIVER, S-9, AROCLOR 1254, Method: STANDARD PLATE
[3] = Test System: AMES SALMONELLA TYPHIMURIUM, Strain/Indicator: TA100, Metabolic Activation: NONE, Method: STANDARD PLATE
[4] = Test System: AMES SALMONELLA TYPHIMURIUM, Strain/Indicator: TA100, Metabolic Activation: RAT, LIVER, S-9, AROCLOR 1254, Method: STANDARD PLATE

## O=NN1CCCC1
Test System: AMES SALMONELLA TYPHIMURIUM, Strain/Indicator: TA97, Metabolic Activation: NONE, Method: STANDARD PLATE
  mutagenic call: inactive; negative
Test System: AMES SALMONELLA TYPHIMURIUM, Strain/Indicator: TA97, Metabolic Activation: RAT, LIVER, S-9, AROCLOR 1254, Method: STANDARD PLATE
  mutagenic call: inactive; negative
[1]
  mutagenic call: inactive; negative
[2]
  mutagenic call: inactive; negative
Test System: AMES SALMONELLA TYPHIMURIUM, Strain/Indicator: TA100, Metabolic Activation: HAMSTER, LIVER, S-9, Method: PREINCUBATION
  mutagenic call: active; positive
Test System: AMES SALMONELLA TYPHIMURIUM, Strain/Indicator: TA100, Metabolic Activation: HUMAN, LIVER, S-9, Method: PREINCUBATION
  mutagenic call: active; positive
[3]
  mutagenic call: inactive; negative
Test System: AMES SALMONELLA TYPHIMURIUM, Strain/Indicator: TA100, Metabolic Activation: PIG, LIVER, S-9, Method: PREINCUBATION
  mutagenic call: active; positive
Test System: AMES SALMONELLA TYPHIMURIUM, Strain/Indicator: TA100, Metabolic Activation: RABBIT, LIVER, S-9, Method: STANDARD PLATE
  mutagenic call: inactive; negative
Test System: AMES SALMONELLA TYPHIMURIUM, Strain/Indicator: TA100, Metabolic Activation: RABBIT, LUNG, S-9, Method: STANDARD PLATE
  mutagenic call: inactive; negative rabbit, lung, s-9
Test System: AMES SALMONELLA TYPHIMURIUM, Strain/Indicator: TA100, Metabolic Activation: RABBIT, NASAL, S-9, Method: STANDARD PLATE
  mutagenic call: active; positive
Test System: AMES SALMONELLA TYPHIMURIUM, Strain/Indicator: TA100, Metabolic Activation: RAT, ESOPHAGUS, S-9, Method: PREINCUBATION
  mutagenic call: active; positive
Test System: AMES SALMONELLA TYPHIMURIUM, Strain/Indicator: TA100, Metabolic Activation: RAT, FORESTOMACH, S-9, Method: PREINCUBATION
  mutagenic call: active; positive
Test System: AMES SALMONELLA TYPHIMURIUM, Strain/Indicator: TA100, Metabolic Activation: RAT, GLANDULAR STOMACH, S-9, Method: PREINCUBATION
  mutagenic call: active; positive
Test System: AMES SALMONELLA TYPHIMURIUM, Strain/Indicator: TA100, Metabolic Activation: RAT, LIVER, S-9, AROCLOR 1254, Method: PREINCUBATION
  mutagenic call: active; positive
[4]
  mutagenic call: inactive; negative
Test System: AMES SALMONELLA TYPHIMURIUM, Strain/Indicator: TA100, Metabolic Activation: RAT, LIVER, S-9, Method: PREINCUBATION
  mutagenic call: inactive; negative
Test System: AMES SALMONELLA TYPHIMURIUM, Strain/Indicator: TA100, Metabolic Activation: RAT, LIVER, S-9, Method: STANDARD PLATE
  mutagenic call: inactive; negative
Test System: AMES SALMONELLA TYPHIMURIUM, Strain/Indicator: TA100, Metabolic Activation: RAT, LUNG, S-9, Method: STANDARD PLATE
  mutagenic call: inactive; negative
Test System: AMES SALMONELLA TYPHIMURIUM, Strain/Indicator: TA100, Metabolic Activation: RAT, NASAL, S-9, Method: STANDARD PLATE
  mutagenic call: active; positive
Test System: AMES SALMONELLA TYPHIMURIUM, Strain/Indicator: TA102, Metabolic Activation: RAT, LIVER, S-9, AROCLOR 1254, Method: PREINCUBATION
  mutagenic call: active; positive
Test System: AMES SALMONELLA TYPHIMURIUM, Strain/Indicator: TA104, Metabolic Activation: RAT, LIVER, S-9, AROCLOR 1254, Method: PREINCUBATION
  mutagenic call: active; positive
Test System: AMES SALMONELLA TYPHIMURIUM, Strain/Indicator: TA1530, Metabolic Activation: RAT LIVER, CYTOSOL, ISONIAZID, Method: PREINCUBATION
  mutagenic call: inactive; negative
Test System: AMES SALMONELLA TYPHIMURIUM, Strain/Indicator: TA1530, Metabolic Activation: RAT LIVER, MICROSOMES, ISONIAZID, Method: PREINCUBATION
  mutagenic call: active; positive
Test System: AMES SALMONELLA TYPHIMURIUM, Strain/Indicator: TA1530, Metabolic Activation: RAT, LIVER, S-9, Method: STANDARD PLATE
  mutagenic call: active; positive
Test System: AMES SALMONELLA TYPHIMURIUM, Strain/Indicator: TA1535, Metabolic Activation: RAT, LIVER, MICROSOMES, Method: PREINCUBATION
  mutagenic call: active; positive
Test System: AMES SALMONELLA TYPHIMURIUM, Strain/Indicator: TA1535, Metabolic Activation: RAT, LIVER, S-9, 3-METHYLCHOLANTHRENE, Method: STANDARD PLATE
  mutagenic call: inactive; negative
Test System: AMES SALMONELLA TYPHIMURIUM, Strain/Indicator: TA1535, Metabolic Activation: RAT, LIVER, S-9, AROCLOR 1254, Method: PREINCUBATION
  mutagenic call: active; positive
Test System: AMES SALMONELLA TYPHIMURIUM, Strain/Indicator: TA1535, Metabolic Activation: RAT, LIVER, S-9, ETHANOL, Method: STANDARD PLATE
  mutagenic call: active; positive
Test System: AMES SALMONELLA TYPHIMURIUM, Strain/Indicator: TA1535, Metabolic Activation: RAT, LIVER, S-9, PHENOBARBITAL, Method: STANDARD PLATE
  mutagenic call: active; positive
Test System: AMES SALMONELLA TYPHIMURIUM, Strain/Indicator: TA1535, Metabolic Activation: RAT, LIVER, S-9, PHENOBARBITONE AND BETA-NAPHTHOFLAVONE, Method: PREINCUBATION
  mutagenic call: active; positive
Test System: AMES SALMONELLA TYPHIMURIUM, Strain/Indicator: TA1535, Metabolic Activation: RAT, LIVER, S-9, PHENOBARBITONE AND BETA-NAPHTHOFLAVONE, Method: STANDARD PLATE
  mutagenic call: active; positive
Test System: AMES SALMONELLA TYPHIMURIUM, Strain/Indicator: TA1535, Metabolic Activation: RAT, LIVER, S-9, PYRAZOLE, Method: PREINCUBATION
  mutagenic call: active; positive
Test System: AMES SALMONELLA TYPHIMURIUM, Strain/Indicator: TA1535, Metabolic Activation: RAT, LIVER, S-9, PYRAZOLE, Method: STANDARD PLATE
  mutagenic call: active; positive
Test System: AMES SALMONELLA TYPHIMURIUM, Strain/Indicator: TA1975, Metabolic Activation: RAT, LIVER, S-9, AROCLOR 1254, Method: PREINCUBATION
  mutagenic call: active; positive
Test System: AMES SALMONELLA TYPHIMURIUM, Strain/Indicator: TA2410, Metabolic Activation: NONE, Method: HOST-MEDIATED
  mutagenic call: inactive; negative
Test System: AMES SALMONELLA TYPHIMURIUM, Strain/Indicator: TA2678, Metabolic Activation: NONE, Method: HOST-MEDIATED
  mutagenic call: inactive; negative
Test System: Ames Salmonella typhimurium, Strain/Indicator: YG7108, Metabolic Activation: Rat, Liver, S-9, Phenobarbital/beta-naphtoflavone, Method: Standard plate
  mutagenic call: active; positive
Test System: Ames Salmonella typhimurium, Strain/Indicator: YG7108pin3ERb5, Metabolic Activation: None, Method: Standard plate
  mutagenic call: active; positive
Test System: CHINESE HAMSTER OVARY, Strain/Indicator: CHO-K1-BH4 (HGPRT), Metabolic Activation: RAT, LIVER, S-9, AROCLOR, Method: SUSPENSION/PLATE
  mutagenic call: active; positive
Test System: CHINESE HAMSTER V-79, Strain/Indicator: V-79/8-AZAGUANINE, Metabolic Activation: RAT, LIVER, S-15, PHENOBARBITAL, Method: STANDARD PLATE
  mutagenic call: active; positive
Test System: UDS RODENT HEPATOCYTES, Strain/Indicator: THY INCORP (NON-S-PHASE), Method: AUTORADIOGRAPHY
  mutagenic call: active; positive

## CCCCCC(O)CC(=O)CCC1CCC(O)C(OC)C1 (stereo not given)
[1]
  mutagenic call: inactive; negative
[2]
  mutagenic call: inactive; negative
[3]
  mutagenic call: inactive; negative
[4]
  mutagenic call: active; positive
Test System: AMES SALMONELLA TYPHIMURIUM, Strain/Indicator: TA1535, Metabolic Activation: NONE, Method: STANDARD PLATE
  mutagenic call: inactive; negative
Test System: AMES SALMONELLA TYPHIMURIUM, Strain/Indicator: TA1535, Metabolic Activation: RAT, LIVER, S-9, AROCLOR 1254, Method: STANDARD PLATE
  mutagenic call: active; positive
Test System: AMES SALMONELLA TYPHIMURIUM, Strain/Indicator: TA1538, Metabolic Activation: NONE, Method: STANDARD PLATE
  mutagenic call: inactive; negative
Test System: AMES SALMONELLA TYPHIMURIUM, Strain/Indicator: TA1538, Metabolic Activation: RAT, LIVER, S-9, AROCLOR 1254, Method: STANDARD PLATE
  mutagenic call: inactive; negative
